The values below are quoted from earlier work in US20180028686A1 (priority 2014, published 2018).

The series has as its system RVFV.

As to `NC(=O)c1ncn([C@@H]2O[C@H](CO)[C@@H](O)[C@H]2O)n1` [Ribavirin, ribavirin], the IC50 values entry was “low micromolar range”.
